Our source for the IC50 values is patent US10689331B2, “IDO inhibitors” (Bristol-Myers Squibb Company, priority 2015, dated 2020).

The structures appear in SMILES notation. Bounds are passed on as bounds.

What is called IC50 is the point on the concentration scale where inhibition reaches its midpoint.

The test deals with T1, human IDO1 (Homo sapiens, UniProt P14902).
T1 construct: expressed in transfected cells
The test is described as follows: HEK Human IDO-1 inhibition assay (kynurenine readout, Ehrlich reagent, absorbance 490 nm). Format: cell-based. Particulars: human IDO1/HEK293 cells, incubated 20 hours with compound; 500 nM reference standard = 100% inhibition. In a few lines:
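HEK293 cells stably expressing human IDO1, treated with compound for 20 h at 37 °C in phenol red-free RPMI/10% FBS. Kynurenine detected after TCA (0.2% final, 50 °C, 30 min) by Ehrlich reagent absorbance at 490 nm; IC50 normalised to 500 nM reference standard (100%) and DMSO (0%).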

T1 sequence (P14902 whole entry): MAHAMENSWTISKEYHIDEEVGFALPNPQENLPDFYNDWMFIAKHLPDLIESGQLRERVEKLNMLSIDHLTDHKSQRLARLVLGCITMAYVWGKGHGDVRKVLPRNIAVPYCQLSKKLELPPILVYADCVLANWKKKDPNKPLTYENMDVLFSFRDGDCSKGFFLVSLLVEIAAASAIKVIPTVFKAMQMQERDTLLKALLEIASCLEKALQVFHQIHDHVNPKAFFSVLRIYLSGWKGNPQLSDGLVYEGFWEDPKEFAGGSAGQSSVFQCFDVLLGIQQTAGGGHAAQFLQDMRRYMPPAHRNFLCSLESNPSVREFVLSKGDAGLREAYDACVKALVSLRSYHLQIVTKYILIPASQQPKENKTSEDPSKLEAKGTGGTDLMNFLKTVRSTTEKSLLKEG

With `Cc1cc(NC(=O)Nc2cc(OCC(=O)O)c(F)cc2N(CC(C)C)C2CCCCC2)on1` [Example 114, 2-(4-(cyclohexyl(isobutyl)amino)-2-fluoro-5-(3-(3-methylisoxazol-5-yl)ureido)phenoxy)acetic acid], the IC50 was not below 100 nM. For `CC(C)CN(c1ccc(OCC(=O)O)cc1NC(=O)Nc1cncnc1)C1CCCCC1` [Example 2, 2-(4-(cyclohexyl(isobutyl)amino)-3-(3-(pyrimidin-5-yl)ureido)phenoxy)acetic acid], the IC50 is not below 100 nM. Take `CCCC(Oc1ccc(N(CC(C)C)C2CCCCC2)c(NC(=O)Nc2ccc(Cl)cc2F)c1)C(=O)O` (single isomer, unassigned) [Example 85-2, 2-(3-(3-(4-chloro-2-fluorophenyl)ureido)-4-(cyclohexyl(isobutyl)amino)phenoxy)pentanoic acid]: the IC50 is less than 5 nM. Turning to `CC(C)CN(c1ccc(OC(C)C(=O)NS(=O)(=O)C2CC2)cc1NC(=O)Cc1ccc(Cl)cc1F)C1CCCCC1` (racemic) [Example 77, (±)-2-(3-(2-(4-chloro-2-fluorophenyl)acetamido)-4-(cyclohexyl(isobutyl)amino)phenoxy)-N-(cyclopropylsulfonyl) propanamide], the IC50 was less than 100 nM. For `CC(C)CN(c1ccc(OCC(=O)O)cc1NC(=O)Nc1ccc(N(C)C)cc1)C1CCCCC1` [Example 9, 2-(4-(cyclohexyl(isobutyl)amino)-3-(3-(4-(dimethylamino)phenyl)ureido)phenoxy)acetic acid], the IC50 is not below 100 nM. With `CC(C)CN(c1ccc(OC(C)C(=O)O)cc1NC(=O)Nc1ccc(Cl)cc1F)C1CCCCC1` (single isomer, unassigned) [Example 61-2, 2-(3-(3-(4-chloro-2-fluorophenyl)ureido)-4-(cyclo-hexyl(isobutyl)amino)phenoxy)propanoic acid], the IC50 is less than 5 nM.

In the case of `CC(C)CN(c1ccc(OC(C)C(=O)O)cc1NC(=O)Cc1ccc(Cl)c(F)c1)C1CCCCC1` (racemic) [Example 72, 2-(3-(2-(4-chloro-3-fluorophenyl)acetamido)-4-(cyclohexyl (isobutyl)amino)phenoxy)prop-anoic acid], the IC50 is less than 100 nM. Take `CCCN(Cc1ccccc1)c1ccc(OCC(=O)O)cc1NC(=O)Nc1ccc(Cl)cc1F` [Example 158, 2-(4-(benzyl(propyl)amino)-3-(3-(4-chloro-2-fluorophenyl)ureido)phenoxy)acetic acid]: the IC50 is less than 100 nM. With `CC(C)CN(c1ccc(OCC(=O)O)cc1NC(=O)Nc1ccc(C#N)cc1F)C1CCCCC1` [Example 43, 2-(3-(3-(4-cyano-2-fluorophenyl)ureido)-4-(cyclohexyl(isobutyl)amino)phenoxy)acetic acid], the IC50 is less than 5 nM. To `Cc1ccc(NC(=O)Nc2cc(OCC(=O)O)ccc2N(CC2CC2)C2CCCCC2)cc1` [Example 131, 2-(4-(cyclohexyl(cyclopropylmethyl)amino)-3-(3-(p-tolyl)ureido)phenoxy)acetic acid] belongs not below 100 nM; to `CC(C)CN(c1ccc(OC(C)C(=O)O)cc1NC(=O)Cc1ccc(F)cc1)C1CCCCC1` (racemic) [Example 74, 2-(4-(cyclohexyl(isobutyl)amino)-3-(2-(4-fluorophenyl)acet-amido)phenoxy)propanoic acid], not below 100 nM. With `CC(C)CN(c1ccc(OC(C)(C)C(=O)O)cc1NC(=O)Nc1ccc(Cl)cc1F)C1CCCCC1` [Example 91, 2-(3-(3-(4-chloro-2-fluorophenyl)ureido)-4-(cyclohexyl(isobutyl)amino)phenoxy)-2-methylpropanoic acid], the half-maximal inhibitory concentration (IC50) is less than 5 nM. `Cc1ccc(NC(=O)Nc2cc(OCC(=O)O)ccc2N(CC(C)C)C2CCCCC2)cc1` [Example 109, 2-(4-(cyclohexyl(isobutyl)amino)-3-(3-(p-tolyl)ureido)phenoxy)acetic acid]: the IC50 was less than 100 nM. Turning to `Cc1ccc(NC(=O)Nc2cc(OC(C)C(=O)O)ccc2N(CC(C)C)C2CCCCC2)c(F)c1` (racemic) [racemic 65], the IC50 is less than 5 nM. `COc1cnc(Nc2cc(OC(C)C(=O)O)ccc2N(CC(C)C)C2CCCCC2)nc1` (racemic) [Example 63, (±)-2-(4-(cyclohexyl(isobutyl)amino)-3-((5-methoxypyrimidin-2-yl)amino)phenoxy)propanoic acid]: the IC50 was not below 100 nM. Under `CC(C)CN(c1ccc(OC(C)C(=O)O)cc1NC(=O)Nc1ccc(Cl)cc1F)C1CCCCC1` (single isomer, unassigned) [Example 61-1, 2-(3-(3-(4-chloro-2-fluorophenyl)ureido)-4-(cyclo-hexyl(isobutyl)amino)phenoxy)propanoic acid] stands less than 5 nM; under `Cc1ccc(F)cc1NC(=O)Nc1cc(OCC(=O)O)ccc1N(CC(C)C)C1CCCCC1` [Example 30, 2-(4-(cyclohexyl(isobutyl)amino)-3-(3-(5-fluoro-2-methylphenyl)ureido)phenoxy)acetic acid], not below 100 nM. To `CCCN(Cc1ccccc1)c1ccc(OCC(=O)O)cc1NC(=O)Nc1ccc(OC(F)(F)F)cc1` [Example 160, 2-(4-(benzyl(propyl)amino)-3-(3-(4-(trifluoromethoxy)phenyl)ureido)phenoxy)acetic acid] belongs not below 100 nM. Under `O=C(O)COc1ccc(N(CC2CC2)C2CCCCC2)c(NC(=O)Nc2cc(F)ccc2F)c1` [Example 130] stands less than 100 nM; under `CCOc1ccc(NC(=O)Nc2cc(OCC(=O)O)ccc2N(CC(C)C)C2CCC(F)(F)CC2)cc1` [Example 100, 2-(4-((4,4-Difluorocyclohexyl)(isobutyl)amino)-3-(3-(4-ethoxyphenyl)ureido)phenoxy)acetic acid], not below 100 nM; under `CC(C)CN(c1ccc(OCC(=O)O)cc1NC(=O)Nc1ccc(Cl)cc1F)C1CCC(F)(F)CC1` [Example 98, 2-(3-(3-(4-Chloro-2-fluorophenyl)ureido)-4-((4,4-difluorocyclohexyl)(isobutyl)amino)-phenoxy)acetic acid], less than 5 nM.

Consider `CC(C)CN(c1ccc(OCc2ncco2)cc1NC(=O)Nc1ccc(Cl)cc1F)C1CCCCC1` [Example 156, 1-(4-chloro-2-fluorophenyl)-3-(2-(cyclohexyl(isobutyl)amino)-5-(oxazol-2-ylmethoxy)phenyl)urea], for which the IC50 was less than 100 nM. As for `CCC(Oc1ccc(N(CC(C)C)C2CCCCC2)c(NC(=O)Nc2ccccc2F)c1)C(=O)O` (single isomer, unassigned) [Example 81-2, 2-(4-(cyclohexyl(isobutyl)amino)-3-(3-(2-fluorophenyl)ureido)phenoxy)butanoic acid], the IC50 was less than 5 nM. `C=C(C)CN(CCCC(F)(F)F)c1cc(F)c(OCC(=O)O)cc1NC(=O)Nc1ccc(Cl)cc1F` [Example 113, 2-(5-(3-(4-chloro-2-fluorophenyl)ureido)-2-fluoro-4-((2-methylallyl)(4,4,4-trifluorobutyl)amino)phenoxy)acetic acid]: the IC50 is less than 5 nM. Turning to `CC(C)CN(c1ccc(OCC(=O)O)cc1NC(=O)Nc1c(F)cccc1F)C1CCCCC1` [Example 19, 2-(4-(cyclohexyl(isobutyl)amino)-3-(3-(2,6-difluorophenyl)ureido)phenoxy)acetic acid], the IC50 was not below 100 nM.

As to `Cc1ccc(NC(=O)Nc2cc(OC(C(=O)O)C(C)C)ccc2N(CC(C)C)C2CCCCC2)cc1` (racemic) [Example 84, (±)-2-(4-(cyclohexyl(isobutyl)amino)-3-(3-(p-tolyl)ureido)phenoxy)-3-methylbutanoic acid], the IC50 is less than 100 nM. Regarding `CC(Oc1ccc(N(CCC(F)(F)F)C2CCOCC2)c(NC(=O)Nc2ccc(Cl)cc2F)c1)C(=O)O` (stereo not shown) [Example 148, 2-(3-(3-(4-chloro-2-fluorophenyl)ureido)-4-((tetrahydro-2H-pyran-4-yl)(3,3,3-trifluoropropyl)amino)phenoxy)propanoic acid], the IC50 was not below 100 nM. Take `COCC(Oc1ccc(N(CC(C)C)C2CCCCC2)c(NC(=O)Nc2ccc(Cl)cc2F)c1)C(=O)O` (single isomer, unassigned) [Example 89-1, 2-(3-(3-(4-chloro-2-fluorophenyl)ureido)-4-(cyclohexyl(isobutyl)amino)phenoxy)-3-methoxypropanoic acid]: the IC50 was less than 5 nM. Take `Cc1c(F)cccc1NC(=O)Nc1cc(OCC(=O)O)ccc1N(CC(C)C)C1CCCCC1` [Example 28, 2-(4-(cyclohexyl(isobutyl)amino)-3-(3-(3-fluoro-2-methylphenyl)ureido)phenoxy)acetic acid]: the IC50 is not below 100 nM. Take `COCCN(c1ccc(OCC(=O)O)cc1NC(=O)Nc1ccc(F)cc1F)C1CCCCC1` [Example 117, 2-(4-(cyclohexyl(2-methoxyethyl)amino)-3-(3-(2,4-difluorophenyl)ureido)phenoxy)acetic acid]: the IC50 is not below 100 nM. To `CC(C)CN(c1ccc(OCC(=O)O)cc1NC(=O)Nc1ccc(F)c(Cl)c1F)C1CCCCC1` [Example 24, 2-(3-(3-(3-chloro-2,4-difluorophenyl)ureido)-4-(cyclo-hexyl(isobutyl)amino)phenoxy) acetic acid] belongs not below 100 nM; to `Cc1ccc(NC(=O)Nc2cc(OCC(=O)O)c(Cl)cc2N(CC(C)C)C2CCCCC2)cc1` [Example 122, 2-(2-chloro-4-(cyclohexyl(isobutyl)amino)-5-(3-(p-tolyl)ureido)phenoxy)acetic acid], not below 100 nM; to `Cc1ccc(CC(=O)Nc2cc(OC(C)C(=O)NS(=O)(=O)C3CC3)ccc2N(CC(C)C)C2CCCCC2)cc1` (racemic) [Example 78, (±)-2-(4-(cyclohexyl(isobutyl)amino)-3-(2-(p-tolyl)acetamido)phenoxy)-N-(cyclopropylsulfonyl)propanamide], less than 100 nM.

For `CC(C)CN(c1ccc(OCC(=O)O)cc1NC(=O)Nc1ccc(Cl)cc1F)C1CCOC1` (stereo not shown) [Example 144, 2-(3-(3-(4-chloro-2-fluorophenyl)ureido)-4-(isobutyl(tetrahydrofuran-3-yl)amino)phenoxy)acetic acid], the IC50 was not below 100 nM.
